Data set [1] relates to IL-13 induced STAT6 phosphorylation in BEAS-2B human lung epithelial cells. The data set can be described thus: AlphaScreen cellular potency assay, IL-13 induced STAT6 phosphorylation in BEAS-2B cells. Conditions: IL-13 induced STAT6 phosphorylation, BEAS-2B cells; for IC50: Homo sapiens, read-out: BEAS-2B pIC50 (converted). The class given is cell-based.
Protocol: The AlphaScreen JAM cellular potency assay was carried out by measuring interleukin-13 (IL-13, R&D Systems) induced STAT6 phosphorylation in BEAS-2B human lung epithelial cells (ATCC). The anti-STAT6 antibody (Cell Signaling Technologies) was conjugated to AlphaScreen acceptor beads (Perkin Elmer), while the anti-pSTAT6 (pTyr641) antibody (Cell Signaling Technologies) was biotinylated using EZ-Link Sulfo-NHS-Biotin (Thermo Scientific).
BEAS-2B cells were grown at 37° C. in a 5% CO2 humidified incubator in 50% DMEM/50% F-12 medium (Life Technologies) supplemented with 10% FBS (Hyclone), 100 U/mL penicillin, 100 μg/mL streptomycin (Life Technologies), and 2 mM GlutaMAX (Life Technologies). On day 1 of the assay, cells were seeded at a 7,500 cells/well density in white poly-D-lysine-coated 384-well plates (Corning) with 25 μL medium, and were allowed to adhere overnight in the incubator. On day 2 of the assay, the medium was removed and replaced with 12 μL of assay buffer (Hank's Balanced Salt Solution/HBSS, 25 mM HEPES, and 1 mg/ml bovine serum albumin/BSA) containing dose-responses of test compounds. Compounds were serially diluted in DMSO and then diluted another 1000-fold in media to bring the final DMSO concentration to 0.1%. Cells were incubated with test compounds at 37° C. for 1 h, and followed by the addition of 12 μl of pre-warmed IL-13 (80 ng/ml in assay buffer) for stimulation. After incubating at 37° C. for 30 min, the assay buffer (containing compound and IL-13) was removed, and 10 μl of cell lysis buffer (25 mM HEPES, 0.1% SDS, 1% NP-40, 5 mM MgCl2, 1.3 mM EDTA, 1 mM EGTA, and supplement with Complete Ultra mini protease inhibitors and PhosSTOP from Roche Diagnostics). The plates were shaken at ambient temperature for 30 min before the addition of detection reagents. A mixture of biotin-anti-pSTAT6 and anti-STAT6 conjugated acceptor beads was added first and incubated at ambient temperature for 2 h, followed by the addition of streptavidin conjugated donor beads (Perkin Elmer). After a minimum of 2 h incubation, the assay plates were read on the EnVision plate reader.
Results were expressed as the negative logarithm of the IC50 value, pIC50.
Data set [2] concerns the target JAK2 (Homo sapiens (Human), UniProt O60674).
Data set [3] deals with IL-13 induced pSTAT6 in lung tissue. The data set can be described thus: Murine model of IL-13 induced pSTAT6 induction in lung tissue. The class given is in vivo. Conditions: mouse lung; for pSTAT6 inhibition Assay 5 / inhibition in vivo at 500 µg/mL: 0.5 mg/mL, 50 μL oral aspiration, IL-13 challenge 4 h after dosing, lungs collected 1 h later; for inhibition in vivo at 500 µg/mL: read-out: pSTAT6 inhibition Assay 5. The procedure:
Il-13 is an important cytokine underlying the pathophysiology of asthma (Kudlacz et al. Eur. J. Pharmacol, 2008, 582, 154-161). IL-13 binds to cell surface receptors activating members of the Janus family of kinases (JAK) which then phosphorylate STAT6 and subsequently activates further transcription pathways. In the described model, a dose of IL-13 was delivered locally into the lungs of mice to induce the phosphorylation of STAT6 (pSTAT6) which is then measured as the endpoint.
Adult balb/c mice from Harlan were used in the assay. On the day of study, animals were lightly anesthetized with isoflurane and administered either vehicle or test compound (0.5 mg/mL, 50 μL total volume over several breaths) via oral aspiration. Animals were placed in lateral recumbency post dose and monitored for full recovery from anesthesia before being returned to their home cage. Four hours later, animals were once again briefly anesthetized and challenged with either vehicle or IL-13 (0.03 μg total dose delivered, 50 μL total volume) via oral aspiration before being monitored for recovery from anesthesia and returned to their home cage. One hour after vehicle or IL-13 administration, lungs were collected for both pSTAT6 detection using an anti-pSTAT6 ELISA (rabbit mAb capture/coating antibody; mouse mAb detection/report antibody: anti-pSTAT6-pY641; secondary antibody: anti-mouse IgG-HRP) and analyzed for total drug concentration as described above in Assay 4.
Selected compounds of the invention were tested in the assay. Activity in the model is evidenced by a decrease in the level of pSTAT6 present in the lungs of treated animals at 5 hours compared to the vehicle treated, IL-13 challenged control animals. The difference between the control animals which were vehicle-treated, IL-13 challenged and the control animals which were vehicle-treated, vehicle challenged dictated the 0% and 100% inhibitory effect, respectively, in any given experiment.

Data set [4] is described as follows: Pharmacokinetics in plasma and lung in mouse. The class given is in vivo. Conditions: oral aspiration 0.2 mg/mL 50 uL, lung AUC (μg hr/g) / plasma AUC (μg hr/mL). How it is done:
Plasma and lung levels of test compounds and ratios thereof were determined in the following manner. BALB/c mice from Charles River Laboratories were used in the assay. Test compounds were individually formulated in 20% propylene glycol in pH 4 citrate buffer at a concentration of 0.2 mg/mL and 50 uL of the dosing solution was introduced into the trachea of a mouse by oral aspiration. At various time points (typically 0.167, 2, 6, 24 hr) post dosing, blood samples were removed via cardiac puncture and intact lungs were excised from the mice. Blood samples were centrifuged (Eppendorf centrifuge, 5804R) for 4 minutes at approximately 12,000 rpm at 4° C. to collect plasma. Lungs were padded dry, weighed, and homogenized at a dilution of 1:3 in sterile water. Plasma and lung levels of test compound were determined by LC-MS analysis against analytical standards constructed into a standard curve in the test matrix. A lung to plasma ratio was determined as the ratio of the lung AUC in μg hr/g to the plasma AUC in μg hr/mL, where AUC is conventionally defined as the area under the curve of test compound concentration vs. time.

Data set [5] deals with Tyk2 (Homo sapiens (Human), UniProt P29597). Description: LanthaScreen JAK biochemical assay (Tyk2). Also: ATP at Km 10 µM. Conditions: read-out: Tyk 2 (PKi).
Chain of Tyk2 (P29597 whole entry): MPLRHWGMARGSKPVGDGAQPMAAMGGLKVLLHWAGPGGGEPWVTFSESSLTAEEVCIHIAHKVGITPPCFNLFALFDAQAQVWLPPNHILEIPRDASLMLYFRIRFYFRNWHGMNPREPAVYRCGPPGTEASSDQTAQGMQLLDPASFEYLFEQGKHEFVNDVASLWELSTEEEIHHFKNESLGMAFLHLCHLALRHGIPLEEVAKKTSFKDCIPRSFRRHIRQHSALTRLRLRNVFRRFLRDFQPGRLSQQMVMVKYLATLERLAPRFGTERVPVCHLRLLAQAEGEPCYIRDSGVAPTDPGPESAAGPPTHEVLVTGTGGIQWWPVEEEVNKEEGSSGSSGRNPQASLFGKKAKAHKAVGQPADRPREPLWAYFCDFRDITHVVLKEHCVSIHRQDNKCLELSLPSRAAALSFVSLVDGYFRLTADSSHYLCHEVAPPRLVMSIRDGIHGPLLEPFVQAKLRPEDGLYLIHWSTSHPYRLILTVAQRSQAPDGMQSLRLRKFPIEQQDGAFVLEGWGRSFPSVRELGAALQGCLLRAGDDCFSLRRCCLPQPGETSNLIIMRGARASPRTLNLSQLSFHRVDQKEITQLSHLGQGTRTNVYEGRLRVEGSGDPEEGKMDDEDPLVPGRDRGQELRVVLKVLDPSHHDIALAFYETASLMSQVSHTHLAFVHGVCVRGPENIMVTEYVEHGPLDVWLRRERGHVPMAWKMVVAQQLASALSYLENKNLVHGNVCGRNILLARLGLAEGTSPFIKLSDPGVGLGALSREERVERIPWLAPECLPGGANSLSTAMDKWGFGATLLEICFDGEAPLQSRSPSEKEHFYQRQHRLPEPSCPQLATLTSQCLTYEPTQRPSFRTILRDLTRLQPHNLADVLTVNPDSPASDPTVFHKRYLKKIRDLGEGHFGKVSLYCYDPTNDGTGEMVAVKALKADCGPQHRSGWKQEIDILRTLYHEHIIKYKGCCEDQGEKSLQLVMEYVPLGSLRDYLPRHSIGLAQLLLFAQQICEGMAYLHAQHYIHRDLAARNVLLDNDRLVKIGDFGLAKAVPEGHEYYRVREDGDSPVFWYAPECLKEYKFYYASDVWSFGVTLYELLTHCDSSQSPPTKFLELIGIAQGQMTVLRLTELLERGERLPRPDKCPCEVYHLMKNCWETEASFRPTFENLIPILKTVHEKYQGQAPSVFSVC
For data set [6], the target named is JAK3 (Homo sapiens (Human), UniProt P52333). The data set can be described thus: LanthaScreen JAK biochemical assay (JAK3). The conditions noted are these: ATP at Km 1.6 μM; read-out: JAK 3 (pKi) (converted).
Chain of JAK3 (P52333 whole entry): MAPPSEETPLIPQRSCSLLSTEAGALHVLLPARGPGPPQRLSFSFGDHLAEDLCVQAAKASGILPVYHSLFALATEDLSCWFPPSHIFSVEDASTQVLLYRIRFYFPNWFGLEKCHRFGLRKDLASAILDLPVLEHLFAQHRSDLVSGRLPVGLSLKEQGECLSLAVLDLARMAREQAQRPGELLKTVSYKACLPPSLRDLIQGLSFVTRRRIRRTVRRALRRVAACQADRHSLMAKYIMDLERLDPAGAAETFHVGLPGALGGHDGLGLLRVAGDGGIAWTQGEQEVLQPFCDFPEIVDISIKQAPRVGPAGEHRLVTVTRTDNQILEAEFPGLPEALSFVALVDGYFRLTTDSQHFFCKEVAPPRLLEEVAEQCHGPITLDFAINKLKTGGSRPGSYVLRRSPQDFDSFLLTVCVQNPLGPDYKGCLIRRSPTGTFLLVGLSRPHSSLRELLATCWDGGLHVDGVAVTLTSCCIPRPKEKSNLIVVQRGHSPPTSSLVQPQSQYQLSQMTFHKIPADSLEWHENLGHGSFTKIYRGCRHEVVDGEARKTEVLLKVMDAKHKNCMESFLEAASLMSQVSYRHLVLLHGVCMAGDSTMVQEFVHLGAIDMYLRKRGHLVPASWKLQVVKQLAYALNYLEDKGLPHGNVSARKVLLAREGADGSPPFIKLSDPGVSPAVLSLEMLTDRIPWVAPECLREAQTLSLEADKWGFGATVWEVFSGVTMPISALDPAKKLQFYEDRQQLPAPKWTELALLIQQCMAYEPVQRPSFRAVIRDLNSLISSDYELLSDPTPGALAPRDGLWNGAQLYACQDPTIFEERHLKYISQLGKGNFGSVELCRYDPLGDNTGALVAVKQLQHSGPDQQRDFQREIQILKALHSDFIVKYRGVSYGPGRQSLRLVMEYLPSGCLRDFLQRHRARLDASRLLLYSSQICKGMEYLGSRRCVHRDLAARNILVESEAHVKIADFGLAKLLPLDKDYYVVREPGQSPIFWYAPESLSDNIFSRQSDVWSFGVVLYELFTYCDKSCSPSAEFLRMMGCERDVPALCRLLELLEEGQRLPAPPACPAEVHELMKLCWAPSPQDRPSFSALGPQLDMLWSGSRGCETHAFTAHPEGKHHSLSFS

The structures appear in SMILES notation.

Chain of JAK2 (O60674 whole entry): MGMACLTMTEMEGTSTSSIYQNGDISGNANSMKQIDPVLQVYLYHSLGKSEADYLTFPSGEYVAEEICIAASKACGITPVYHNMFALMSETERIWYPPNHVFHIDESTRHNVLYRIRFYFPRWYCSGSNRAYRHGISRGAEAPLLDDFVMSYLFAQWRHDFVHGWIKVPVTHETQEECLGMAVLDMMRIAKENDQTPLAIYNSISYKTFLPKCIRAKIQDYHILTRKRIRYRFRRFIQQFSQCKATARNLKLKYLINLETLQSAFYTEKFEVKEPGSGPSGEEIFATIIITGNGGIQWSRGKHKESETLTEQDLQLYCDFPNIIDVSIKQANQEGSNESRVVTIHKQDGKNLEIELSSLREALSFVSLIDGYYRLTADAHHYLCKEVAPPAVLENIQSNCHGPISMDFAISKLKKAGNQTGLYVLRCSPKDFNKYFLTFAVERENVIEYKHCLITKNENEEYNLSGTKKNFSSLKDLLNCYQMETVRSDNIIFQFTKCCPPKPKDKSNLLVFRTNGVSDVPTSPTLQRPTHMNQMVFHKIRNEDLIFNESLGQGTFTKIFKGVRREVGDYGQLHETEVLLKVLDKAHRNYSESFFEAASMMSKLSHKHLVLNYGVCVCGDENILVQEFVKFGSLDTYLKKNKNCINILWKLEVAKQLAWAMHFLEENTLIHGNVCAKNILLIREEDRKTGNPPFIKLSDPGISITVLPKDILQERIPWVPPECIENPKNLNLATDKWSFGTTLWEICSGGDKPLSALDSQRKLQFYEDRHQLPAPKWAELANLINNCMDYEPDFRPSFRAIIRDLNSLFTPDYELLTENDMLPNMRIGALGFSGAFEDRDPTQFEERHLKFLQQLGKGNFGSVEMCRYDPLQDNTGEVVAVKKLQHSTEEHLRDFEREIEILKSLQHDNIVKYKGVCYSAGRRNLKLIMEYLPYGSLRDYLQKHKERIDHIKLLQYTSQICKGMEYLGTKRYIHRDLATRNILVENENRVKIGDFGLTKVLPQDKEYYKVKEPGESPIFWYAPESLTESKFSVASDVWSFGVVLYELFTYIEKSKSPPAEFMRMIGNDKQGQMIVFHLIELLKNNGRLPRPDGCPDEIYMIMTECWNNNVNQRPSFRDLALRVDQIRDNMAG

As for `CCc1cc(O)c(F)cc1-c1ccc2c(-c3nc4c([nH]3)CCN(C3CN(CCOC)C3)C4)n[nH]c2c1` [Example 1-6], the “BEAS-2B pIC50” value in data set [1] was “A (A represents a pIC50 value ≥8 (IC50≤10 nM))”. In data set [2], this molecule came in with a Ki of less than 0.1 nM.

Take `CCc1cc(O)c(F)cc1-c1ccc2c(-c3nc4c([nH]3)CCN(CC3CNC3)C4)n[nH]c2c1` [Example 14-7]: the “pSTAT6 inhibition Assay 5” value in data set [3] was “B (B represents between 50% and 65% inhibition)”. Moreover, the “BEAS-2B pIC50” value in data set [1] was “B (B represents a pIC50 value between 7.4 and 8 (IC50 between 40 nM and 10 nM))”. The Ki in data set [2] is less than 0.1 nM. Besides, the “Lung to Plasma ratio Assay 4” value in data set [4] is “A (A denotes a ratio >100)”.

With `CCc1cc(O)c(F)cc1-c1ccc2c(-c3nc4c([nH]3)CCN(C3CN(CCC#N)C3)C4)n[nH]c2c1` [Example 1-8], in data set [1], the “BEAS-2B pIC50” value is given as “A (A represents a pIC50 value ≥8 (IC50≤10 nM))”. Further, the Ki in data set [2] is less than 0.1 nM.

Consider `CCc1cc(O)c(F)cc1-c1ccc2c(-c3nc4c([nH]3)CCN(C3CCN(C)C3)C4)n[nH]c2c1` (stereo not shown) [Example 9-2], for which the IC50 in data set [1] was less than 10 nM. The Ki is less than 0.1 nM in data set [2] and 0.316 to 1 nM in data set [5].

Turning to `CCc1cc(O)c(F)cc1-c1ccc2c(-c3nc4c([nH]3)CCN(C3CN(C5CC5)C3)C4)n[nH]c2c1` [Example 5, 4-(3-(5-(1-cyclopropylazetidin-3-yl)-4,5,6,7-tetrahydro-1H-imidazo[4,5-c]pyridin-2-yl)-1H-indazol-6-yl)-5-ethyl-2-fluorophenol], the inhibition in vivo at 500 µg/mL in data set [3] was greater than 65%. Also, the IC50 in data set [1] was less than 10 nM. Further, the figures for the Ki in data set [2], in data set [5] and in data set [6] were less than 0.1 nM, 0.316 to 1 nM and 0.1 to 1 nM, respectively. For the same molecule, the “Lung to Plasma ratio Assay 4” value in data set [4] was “C (C denotes a ratio between 10 and 50)”.

For the molecule `CCc1cc(O)c(F)cc1-c1ccc2c(-c3nc4c([nH]3)CCN(CCN(C)CC(C)C)C4)n[nH]c2c1` [Example 3-33], the “pSTAT6 inhibition Assay 5” value in data set [3] was “C (C represents between 33% and 50% inhibition)”. In data set [4], the “Lung to Plasma ratio Assay 4” value is listed as “A (A denotes a ratio >100)”.

On to `CCc1cc(O)c(F)cc1-c1ccc2c(-c3nc4c([nH]3)CCN(C3CN(CC(C)C)C3)C4)n[nH]c2c1` [Example 1-11], for which the “pSTAT6 inhibition Assay 5” value in data set [3] was “C (C represents between 33% and 50% inhibition)”. Besides, the “Lung to Plasma ratio Assay 4” value in data set [4] was “C (C denotes a ratio between 10 and 50)”.

With `CCc1cc(O)c(F)cc1-c1ccc2c(-c3nc4c([nH]3)CCN(C3CN(C(C)CC)C3)C4)n[nH]c2c1` (stereo not shown) [Example 4, 4-(3-(5-(1-(sec-butyl)azetidin-3-yl)-4,5,6,7-tetrahydro-1H-imidazo[4,5-c]pyridin-2-yl)-1H-indazol-6-yl)-5-ethyl-2-fluorophenol], the inhibition in vivo at 500 µg/mL in data set [3] was greater than 65%. Further, the IC50 in data set [1] was less than 10 nM. For the same molecule, the “Lung to Plasma ratio Assay 4” value in data set [4] is “B (B denotes a ratio between 50 and 100)”.

Regarding `CCc1cc(O)c(F)cc1-c1ccc2c(-c3nc4c([nH]3)CCN(C3CN(CCCOC)C3)C4)n[nH]c2c1` [Example 1-7], in data set [3], the “pSTAT6 inhibition Assay 5” value was “C (C represents between 33% and 50% inhibition)”. Moreover, the “Lung to Plasma ratio Assay 4” value in data set [4] is “B (B denotes a ratio between 50 and 100)”.

`CCc1cc(O)c(F)cc1-c1ccc2c(-c3nc4c([nH]3)CCN(CCNC3(C#N)CC3)C4)n[nH]c2c1` [Example 3-1]: the “pSTAT6 inhibition in the pharmacodynamic assay” value in data set [3] is “exceptions”.

For the molecule `CCc1cc(O)c(F)cc1-c1ccc2c(-c3nc4c([nH]3)CCN(CCN(C)CC)C4)n[nH]c2c1` [Example 9, 5-ethyl-4-(3-(5-(2-(ethyl(methyl)amino)ethyl)-4,5,6,7-tetrahydro-1H-imidazo[4,5-c]pyridin-2-yl)-1H-indazol-6-yl)-2-fluorophenol], the inhibition in vivo at 500 µg/mL in data set [3] lay within 50 to 65%. Besides, the IC50 in data set [1] is less than 10 nM. For the same molecule, the Ki in data set [2] was less than 0.1 nM; in data set [5], 0.316 to 1 nM. Also, in data set [4], the “Lung to Plasma ratio Assay 4” value was “B (B denotes a ratio between 50 and 100)”.

Regarding `CCc1cc(O)c(F)cc1-c1ccc2c(-c3nc4c([nH]3)CCN(CC(F)CN(C)C)C4)n[nH]c2c1` (stereo not shown) [Example 12, 4-(3-(5-(3-(dimethylamino)-2-fluoropropyl)-4,5,6,7-tetrahydro-1H-imidazo[4,5-c]pyridin-2-yl)-1H-indazol-6-yl)-5-ethyl-2-fluorophenol], in data set [3], the inhibition in vivo at 500 µg/mL was in the range of 33 to 50%. Besides, the IC50 in data set [1] is less than 10 nM. Besides, the Ki in data set [2] was less than 0.1 nM; in data set [5], 0.316 to 1 nM; in data set [6], 0.1 to 1 nM. Besides, the “Lung to Plasma ratio Assay 4” value in data set [4] was “C (C denotes a ratio between 10 and 50)”.

As to `CCc1cc(O)c(F)cc1-c1ccc2c(-c3nc4c([nH]3)CCN(C3CN(C5CCS(=O)(=O)C5)C3)C4)n[nH]c2c1` (stereo not shown) [Example 1-15], in data set [3], the “pSTAT6 inhibition in the pharmacodynamic assay” value is “exceptions”.

`CCc1cc(O)c(F)cc1-c1ccc2c(-c3nc4c([nH]3)CCN(C3CN(CC)C3)C4)n[nH]c2c1` [Example 1-3]: the “BEAS-2B pIC50” value in data set [1] was “B (B represents a pIC50 value between 7.4 and 8 (IC50 between 40 nM and 10 nM))”. This molecule also gave a Ki in data set [2] of less than 0.1 nM.

`CCc1cc(O)c(F)cc1-c1ccc2c(-c3nc4c([nH]3)CCN(C[C@@H]3COCCN3)C4)n[nH]c2c1` [Example 14, (R)-5-Ethyl-2-fluoro-4-(3-(5-(morpholin-3-ylmethyl)-4,5,6,7-tetrahydro-1H-imidazo[4,5-c]pyridin-2-yl)-1H-indazol-6-yl)phenol]: the inhibition in vivo at 500 µg/mL in data set [3] was greater than 65%. Moreover, in data set [1], the IC50 is less than 10 nM. This molecule displayed a Ki in data set [2] of less than 0.1 nM. Also, in data set [4], the “Lung to Plasma ratio Assay 4” value is recorded as “A (A denotes a ratio >100)”.

For `CCc1cc(O)c(F)cc1-c1ccc2c(-c3nc4c([nH]3)CCN(C3CN(CCO)C3)C4)n[nH]c2c1` [Example 1-1], in data set [1], the “BEAS-2B pIC50” value is “B (B represents a pIC50 value between 7.4 and 8 (IC50 between 40 nM and 10 nM))”. The same molecule showed a Ki in data set [2] of less than 0.1 nM.

Take `CCc1cc(O)c(F)cc1-c1ccc2c(-c3nc4c([nH]3)CCN(C3CN(CC5CC5)C3)C4)n[nH]c2c1` [Example 1-18]: the “pSTAT6 inhibition Assay 5” value in data set [3] was “C (C represents between 33% and 50% inhibition)”. In addition, in data set [4], the “Lung to Plasma ratio Assay 4” value is “B (B denotes a ratio between 50 and 100)”.

As to `CCc1cc(O)c(F)cc1-c1ccc2c(-c3nc4c([nH]3)CCN(C3CCNC3)C4)n[nH]c2c1` (stereo not shown) [Example 9-1], in data set [1], the “BEAS-2B pIC50” value was “B (B represents a pIC50 value between 7.4 and 8 (IC50 between 40 nM and 10 nM))”. In data set [2], this molecule registered a Ki of less than 0.1 nM.

As for `CCc1cc(O)c(F)cc1-c1ccc2c(-c3nc4c([nH]3)CCN(C3CCNCC3)C4)n[nH]c2c1` [Example 2-3], the “BEAS-2B pIC50” value in data set [1] was “B (B represents a pIC50 value between 7.4 and 8 (IC50 between 40 nM and 10 nM))”. Besides, in data set [2], the Ki is less than 0.1 nM.

Take `CCc1cc(O)c(F)cc1-c1ccc2c(-c3nc4c([nH]3)CCN(CCN3CCCC3)C4)n[nH]c2c1` [Example 16, 5-Ethyl-2-fluoro-4-(3-(5-(2-(pyrrolidin-1-yl)ethyl)-4,5,6,7-tetrahydro-1H-imidazo[4,5-c]pyridin-2-yl)-1H-indazol-6-yl)phenol]: in data set [1], the IC50 is less than 10 nM. This molecule displayed a Ki in data set [2] of less than 0.1 nM.

Source of the values: patent US10100049B2, “JAK kinase inhibitor compounds for treatment of respiratory disease” (THERAVANCE BIOPHARMA R&D IP, LLC, priority 2015, dated 2018).
